Consider five molecules from patent US10227347B2, “Purinyl-N-hydroxyl pyrimidine formamide derivative, preparation methods and uses thereof” (Guizhou Bailing Group Pharmaceutical CO., LTD., priority 2015, dated 2019).

Like-named read-outs stand apart in the source and are kept apart here.

Series [1] relates to U266 cells (multiple myeloma). In words: Proliferation inhibition, U266 (cck-8). Type of series: cell-based. The settings on record: Homo sapiens, U-266; 96 h incubation. The source says: (§1) Calculating the value of IC50 as per the formula: Y=background data+(top data−background data)/(1+10^((Log IC50−X)*rate of curve)). Where, Y refers to the inhibition ratio (%) and X refers to the compound concentration.

The target of another series is T1, PI3Kβ (Homo sapiens, UniProt P42338).
T1 construct: purchased Millipore 14-603-K
In words: PI3Kβ activity inhibition (ADP-Glo). Type of series: biochemical. The method, then: (§2) Detecting the inhibition capability of the compound to PI3Kβ and PI3Kγ activities with ADP-Glo (purchased from Promege Company; Catalog No.: v9102/3). […] The reaction system also comprises substrates as PIP2 and ATP. The reaction buffer system comprises 50 mM HEPES, 3 mM MgCl2, 1 mM EGTA, 100 mM NaCl, 0.03% CHAPS and 2 mM DTT. The pH value of the reaction buffer is 7.5. […] Mixing the system evenly for incubation under ambient temperature for 1 h; getting a new 384 well plate and transferring 5 μL reaction liquid from the each well of original 384 well plate to the corresponding wells of the new 384 well plate; adding 5 μL ADP-Glo which has been preheated to ambient temperature into each new reaction well to terminate the reaction; oscillating it slowly in dark place for 40 min's incubation after it is mixed evenly; adding 10 μL testing liquid in each reaction well, oscillating it for 1 min to mix evenly and incubating it for 1 h, then measuring the fluorescence intensity with a microplate reader and analyzing the result data with the software GraphPad Prism.
(§3) Calculating the value of IC50 as per the formula: Y=background data+(top data−background data)/(1+10^((Log IC50−X)*rate of curve))
(§4) Where, Y refers to the inhibition ratio (%) and X refers to the compound concentration.
(In ADP-Glo the light output rises with the ADP produced.)

Series [2] relates to OCI-LY1 cells (B-cell lymphoma). In words: Proliferation inhibition, OCI-LY1 (cck-8). Type of series: cell-based. The settings on record: Homo sapiens, 96 h incubation.
Source text: as §1

For the next series, the target named is T2, PI3Kγ (Homo sapiens, UniProt P48736).
T2 construct: purchased Invitrogen PR8641C
In words: PI3Kγ activity inhibition (ADP-Glo). Type of series: biochemical. The method, then: as §2, §3, §4

The target of another series is T3, HDAC8 (Homo sapiens, UniProt Q9BY41).
T3 construct: purchased BPS Bioscience 50008
T3 sequence (Q9BY41 1-377): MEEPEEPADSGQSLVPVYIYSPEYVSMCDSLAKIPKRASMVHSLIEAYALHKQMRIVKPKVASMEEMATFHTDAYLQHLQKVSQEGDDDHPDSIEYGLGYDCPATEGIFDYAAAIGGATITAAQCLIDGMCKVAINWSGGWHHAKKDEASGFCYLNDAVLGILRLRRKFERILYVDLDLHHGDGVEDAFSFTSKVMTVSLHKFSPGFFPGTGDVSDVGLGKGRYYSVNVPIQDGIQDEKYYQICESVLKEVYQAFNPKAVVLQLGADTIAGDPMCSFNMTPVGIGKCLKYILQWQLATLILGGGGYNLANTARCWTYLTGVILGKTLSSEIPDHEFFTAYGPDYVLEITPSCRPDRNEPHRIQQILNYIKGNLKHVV
In words: HDAC8 enzyme inhibition (Lys-Ac-AMC). Type of series: biochemical. Particulars: Table 4, graded. Here is the method:
(§5) Determining the inhibition capability of HDAC through the substrate method of fluorophore coupled acetylized peptide fragment (Lys-Ac-AMC). HDAC2-11 proteins of subtypes are purchased from BPS Bioscience Company with the Art. […] The reaction buffer system is a modified Tris buffer (pH7.0). The small molecule compounds are prepared and dissolved with 100% DMSO. […] Adding the compound into the reaction wells of the 384 well plate at the designed concentration, then adding 15 μL HDAC enzyme solution into the reaction wells (adding 15 μL blank buffer into the control well 0) for incubation under ambient temperature for 15 min; then adding 10 μL substrate solution to start reaction.
(§6) Analyzing the result data with the software GraphPad Prism and calculating the value of IC50 as per the formula: Y=background data+(top data−background data)/(1+10^((Log IC50−X)*rate of curve)). Where, Y refers to the inhibition ratio (%) and X refers to the compound concentration.

The target in a further series is T4, HDAC2 (Homo sapiens, UniProt Q92769).
T4 construct: purchased BPS Bioscience 50002
The experiment in a line: HDAC2 enzyme inhibition (Lys-Ac-AMC). Type of series: biochemical. The settings on record: Table 4, graded. Here is the method:
as §5, §6

For series [3], the system named is MV4-11 subcutaneous tumor. Particulars: 10 mg/kg i.v., once per two days, 22 days. An excerpt:
During drug administration, measuring the weight and gross tumor volume of the mice per 2 days and keeping a record. The calculation formula is as V=π/6×A^2×B, where, where, V=gross tumor volume (mm^3), A=tumor width (mm) and B=tumor length (mm). Observing and keeping a record for the survival condition of the tested animals. After drug discontinuance, killing the mice through cervical dislocation and peeling off their tumors as per the operation specification of animal experiment. Evaluating the inhibition capability of the compounds to tumor activities by calculating the tumor inhibitory rate with the formula as: tumor inhibitory rate=(1−tumor weight of treatment group/tumor weight of control group)×100%. Analyzing and comparing the difference between each treatment group and control group with the method of t-test. The grading of significance level of difference is: ***, P<0.001; **, P<0.01; *, P<0.05; no statistical significance (ns), P>0.05.

Series [4] deals with MV4-11 cells (acute myeloid leukemia). The experiment in a line: Cell proliferation inhibition, MV4-11 (cck-8). Type of series: cell-based. The settings on record: Homo sapiens. The essentials:
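Cells seeded at 2000-3000/well; adherent lines dosed after attachment, then 96 h incubation with compound. Viability read by MTT for solid-tumour lines (HCT116, A2780s) and CCK-8 for MV4-11; IC50 from four-parameter logistic fit of inhibition ratio versus concentration.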

The next series addresses T5, HDAC3 (Homo sapiens, UniProt O15379).
T5 construct: purchased BPS Bioscience 50003
In words: HDAC3 enzyme inhibition (Lys-Ac-AMC). Type of series: biochemical. The settings on record: Table 4, graded. Here is the method: as §5, §6

[5] abbreviates: 96 h incubation, read-out: Proliferation IC50, Acute myeloid leukemia MV4-11.

T4 sequence (Q92769 whole entry, species assumed): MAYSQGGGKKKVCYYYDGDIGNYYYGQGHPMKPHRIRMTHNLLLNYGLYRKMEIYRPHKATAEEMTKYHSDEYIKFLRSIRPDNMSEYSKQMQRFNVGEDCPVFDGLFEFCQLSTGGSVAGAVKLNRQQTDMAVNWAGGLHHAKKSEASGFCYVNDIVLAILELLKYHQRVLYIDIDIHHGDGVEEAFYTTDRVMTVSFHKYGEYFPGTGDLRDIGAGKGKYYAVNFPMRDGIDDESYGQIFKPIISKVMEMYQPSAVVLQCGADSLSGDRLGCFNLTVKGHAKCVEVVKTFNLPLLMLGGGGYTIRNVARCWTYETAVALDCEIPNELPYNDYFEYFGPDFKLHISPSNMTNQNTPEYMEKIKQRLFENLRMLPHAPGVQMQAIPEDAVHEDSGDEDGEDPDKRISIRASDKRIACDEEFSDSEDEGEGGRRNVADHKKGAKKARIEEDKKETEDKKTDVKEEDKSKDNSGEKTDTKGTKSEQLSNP
T2 sequence (P48736 whole entry): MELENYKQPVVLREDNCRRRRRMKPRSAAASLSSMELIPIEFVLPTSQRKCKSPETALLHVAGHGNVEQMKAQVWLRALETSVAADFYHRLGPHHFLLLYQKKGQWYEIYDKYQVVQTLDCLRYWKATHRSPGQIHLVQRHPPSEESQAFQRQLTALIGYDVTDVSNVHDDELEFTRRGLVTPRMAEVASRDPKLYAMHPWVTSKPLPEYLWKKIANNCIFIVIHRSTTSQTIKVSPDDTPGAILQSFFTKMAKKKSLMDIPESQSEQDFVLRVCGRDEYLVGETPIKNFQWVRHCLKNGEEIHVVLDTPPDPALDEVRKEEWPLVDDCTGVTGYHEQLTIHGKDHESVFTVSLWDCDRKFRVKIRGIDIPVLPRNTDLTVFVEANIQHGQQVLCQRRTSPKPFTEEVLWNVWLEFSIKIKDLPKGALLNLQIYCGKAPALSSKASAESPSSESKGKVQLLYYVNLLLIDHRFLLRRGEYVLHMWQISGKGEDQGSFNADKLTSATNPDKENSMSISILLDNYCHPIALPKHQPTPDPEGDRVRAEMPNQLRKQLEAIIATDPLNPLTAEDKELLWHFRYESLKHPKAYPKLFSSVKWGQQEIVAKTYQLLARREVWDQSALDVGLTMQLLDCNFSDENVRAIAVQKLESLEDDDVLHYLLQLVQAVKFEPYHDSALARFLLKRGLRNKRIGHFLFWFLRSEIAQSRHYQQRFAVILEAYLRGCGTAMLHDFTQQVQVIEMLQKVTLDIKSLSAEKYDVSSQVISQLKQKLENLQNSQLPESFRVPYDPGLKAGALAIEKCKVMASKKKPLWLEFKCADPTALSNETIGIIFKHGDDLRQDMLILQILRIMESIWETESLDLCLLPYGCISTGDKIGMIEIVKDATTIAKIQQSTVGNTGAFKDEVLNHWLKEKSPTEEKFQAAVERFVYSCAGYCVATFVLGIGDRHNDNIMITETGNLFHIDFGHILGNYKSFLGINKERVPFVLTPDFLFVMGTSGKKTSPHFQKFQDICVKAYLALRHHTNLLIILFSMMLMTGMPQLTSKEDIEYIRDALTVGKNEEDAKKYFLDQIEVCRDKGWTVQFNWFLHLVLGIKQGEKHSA
T1 sequence (P42338 whole entry, species assumed): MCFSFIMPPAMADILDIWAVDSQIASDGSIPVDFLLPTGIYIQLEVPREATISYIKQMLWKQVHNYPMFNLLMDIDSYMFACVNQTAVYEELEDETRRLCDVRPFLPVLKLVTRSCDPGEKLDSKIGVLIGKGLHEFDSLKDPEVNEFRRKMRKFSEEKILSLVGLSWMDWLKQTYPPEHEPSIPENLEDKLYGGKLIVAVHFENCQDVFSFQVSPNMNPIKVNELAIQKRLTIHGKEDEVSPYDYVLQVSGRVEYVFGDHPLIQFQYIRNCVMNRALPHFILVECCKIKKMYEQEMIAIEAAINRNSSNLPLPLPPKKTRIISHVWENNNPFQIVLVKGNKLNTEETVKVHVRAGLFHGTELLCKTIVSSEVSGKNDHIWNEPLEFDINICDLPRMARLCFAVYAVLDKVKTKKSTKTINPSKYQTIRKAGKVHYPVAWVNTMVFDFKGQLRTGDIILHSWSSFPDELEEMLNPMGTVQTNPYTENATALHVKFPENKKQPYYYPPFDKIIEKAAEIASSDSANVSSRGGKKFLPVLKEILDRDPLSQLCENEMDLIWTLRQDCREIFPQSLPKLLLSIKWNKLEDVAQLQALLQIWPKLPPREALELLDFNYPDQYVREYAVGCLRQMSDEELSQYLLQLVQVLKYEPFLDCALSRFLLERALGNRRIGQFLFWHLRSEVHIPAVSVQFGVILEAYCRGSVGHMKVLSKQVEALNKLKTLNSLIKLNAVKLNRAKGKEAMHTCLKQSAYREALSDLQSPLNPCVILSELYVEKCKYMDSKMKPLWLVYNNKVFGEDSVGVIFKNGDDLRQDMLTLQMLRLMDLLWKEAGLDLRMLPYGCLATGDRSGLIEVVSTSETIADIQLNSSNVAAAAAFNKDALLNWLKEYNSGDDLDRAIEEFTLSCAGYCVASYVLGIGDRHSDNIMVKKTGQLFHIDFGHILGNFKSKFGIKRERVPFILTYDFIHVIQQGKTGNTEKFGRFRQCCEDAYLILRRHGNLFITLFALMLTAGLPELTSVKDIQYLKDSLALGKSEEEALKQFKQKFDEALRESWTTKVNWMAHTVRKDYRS
T1 sequence (P27986 whole entry partner, species assumed): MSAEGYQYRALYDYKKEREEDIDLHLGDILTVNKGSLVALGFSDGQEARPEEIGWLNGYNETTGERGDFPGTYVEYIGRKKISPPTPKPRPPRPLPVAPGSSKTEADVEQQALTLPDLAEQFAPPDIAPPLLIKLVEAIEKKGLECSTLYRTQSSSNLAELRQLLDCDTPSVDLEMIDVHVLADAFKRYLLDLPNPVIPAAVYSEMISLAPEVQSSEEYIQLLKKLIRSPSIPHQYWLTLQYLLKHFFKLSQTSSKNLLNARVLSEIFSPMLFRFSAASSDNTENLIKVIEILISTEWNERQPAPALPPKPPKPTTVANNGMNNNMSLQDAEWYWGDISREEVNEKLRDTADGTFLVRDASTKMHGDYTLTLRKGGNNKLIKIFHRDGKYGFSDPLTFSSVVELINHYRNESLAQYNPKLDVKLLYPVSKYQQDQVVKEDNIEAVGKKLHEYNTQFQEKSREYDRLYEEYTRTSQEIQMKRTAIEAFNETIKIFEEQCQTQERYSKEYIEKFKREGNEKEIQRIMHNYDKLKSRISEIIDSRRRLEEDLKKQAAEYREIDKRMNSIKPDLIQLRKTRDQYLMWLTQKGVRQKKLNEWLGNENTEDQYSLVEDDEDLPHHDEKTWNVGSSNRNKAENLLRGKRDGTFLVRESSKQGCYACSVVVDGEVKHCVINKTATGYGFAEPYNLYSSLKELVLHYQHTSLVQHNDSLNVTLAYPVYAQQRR
T5 sequence (O15379 whole entry, species assumed): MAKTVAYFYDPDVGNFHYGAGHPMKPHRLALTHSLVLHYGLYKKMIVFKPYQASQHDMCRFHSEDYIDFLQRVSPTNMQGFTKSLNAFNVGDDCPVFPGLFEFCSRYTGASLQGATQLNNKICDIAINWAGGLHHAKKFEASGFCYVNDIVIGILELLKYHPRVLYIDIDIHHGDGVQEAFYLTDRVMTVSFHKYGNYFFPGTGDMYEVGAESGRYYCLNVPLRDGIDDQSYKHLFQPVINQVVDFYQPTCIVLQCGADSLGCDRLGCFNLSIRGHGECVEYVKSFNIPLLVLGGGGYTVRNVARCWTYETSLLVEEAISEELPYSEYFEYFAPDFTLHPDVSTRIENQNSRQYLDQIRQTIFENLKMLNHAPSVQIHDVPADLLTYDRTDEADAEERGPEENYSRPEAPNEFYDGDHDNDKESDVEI
T5 sequence (Q9Y618 395-489 partner limits assumed, species assumed): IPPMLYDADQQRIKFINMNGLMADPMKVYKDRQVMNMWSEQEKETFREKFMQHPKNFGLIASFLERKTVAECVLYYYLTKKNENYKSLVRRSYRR

In the case of `COc1ccc(-c2nc(N3CCOCC3)c3nc(CN(C)c4ncc(C(=O)NO)cn4)n(C)c3n2)cn1` [CLJ-1, 2-(((2-(6-methoxypyridine-3-yl)-9-methyl-6-morpholine-9H-purine-8-yl))methyl(methyl)amino)-N-hydroxyl pyrimidine-5-formamide], the IC50 in [1] is 0.1 to 1 nM; against PI3Kβ (Table 1, graded), 1000 to 10000 nM; at PI3Kβ (Table 4, graded), 1000 to 10000 nM; in series [2], 10 to 100 nM; on PI3Kγ (Table 1, graded), 100 to 1000 nM; at PI3Kγ (Table 4, graded), 100 to 1000 nM. In addition, the IC50 was 100 to 1000 nM against HDAC8, 1 to 100 nM at HDAC2, 0.1 to 10 nM in [4] (setting [5]) and 1 to 100 nM at HDAC3. In addition, in series [3], the “Final survival condition (survived individuals/total individuals)” value is 5/6.

As to `CN(Cc1nc2c(N3CCOCC3)nc(-c3cnc(N)nc3)nc2n1C)c1ncc(C(=O)NO)cn1` [CLJ-11, 2-(((2-(2-aminopyrimidine-5-yl)-9-methyl-6-morpholine-9H-purine-8-yl))methyl(methyl)amino)-N-hydroxyl pyrimidine-5-formamide], the IC50 lay within 10 to 100 nM in [1]; 100 to 1000 nM at PI3Kβ (Table 1, graded); 1 to 100 nM at PI3Kβ (Table 4, graded); 100 to 1000 nM in series [2]; 100 to 1000 nM at PI3Kγ (Table 1, graded); 1 to 100 nM at PI3Kγ (Table 4, graded). In addition, the IC50 against HDAC8 was 1 to 100 nM; at HDAC2 it was 1 to 100 nM; in [4] (setting [5]) it was 0.1 to 10 nM; against HDAC3 it was 1 to 100 nM. For the same molecule, in series [3], the “Final survival condition (survived individuals/total individuals)” value was 4/6. Moreover, the “Tumor inhibitory rate (%)” value in [3] stood at 45.1%.

With `COc1ccc(-c2nc(N3CCOCC3)c3nc(CN(C)c4ncc(C(=O)NO)cn4)n(C)c3n2)cc1` [CLJ-29, 2-(((2-(4-methoxyphenyl)-9-methyl-6-morpholine-9H-purine-8-yl))methyl(methyl)amino)-N-hydroxyl pyrimidine-5-formamide], the IC50 in series [1] is 0.1 to 1 nM; on PI3Kβ (Table 4, graded), more than 10000 nM; in series [2], 1 to 10 nM; against PI3Kγ (Table 4, graded), more than 10000 nM; on HDAC8, 1 to 100 nM; against HDAC2 it was 1 to 100 nM. The IC50 in series [4] (setting [5]) lay within 0.1 to 10 nM; in series [4] (read-out: IC50 to proliferation of MV4-11 cells), 0.1 to 10 nM; on HDAC3, 1 to 100 nM. In series [3], the “Final survival condition (survived individuals/total individuals)” value is on record as 4/6.

Turning to `CN(Cc1nc2c(N3CCOCC3)nc(-c3ccc(N)cc3)nc2n1C)c1ncc(C(=O)NO)cn1` [CLJ-44], the IC50 in [1] was 1 to 10 nM; on PI3Kβ (Table 4, graded), more than 10000 nM; in series [2], 10 to 100 nM; on PI3Kγ (Table 4, graded), more than 10000 nM; at HDAC8, 1 to 100 nM; at HDAC2 it was 1 to 100 nM. In addition, the IC50 in [4] (setting [5]) lay in the range of 0.1 to 10 nM; at HDAC3, 1 to 100 nM. In [3], the “Final survival condition (survived individuals/total individuals)” value is on record as 6/6.

For `Cc1[nH]c2ccccc2c1CCNCc1ccc(/C=C/C(=O)NO)cc1` [LBH589, panobinostat, reference compound], the IC50 in series [1] is 1 to 10 nM; against PI3Kβ (Table 4, graded), more than 10000 nM; in [2] it was 10 to 100 nM; against PI3Kγ (Table 4, graded), more than 10000 nM; in series [4] (setting [5]), 0.1 to 10 nM.
